Measurements as given in ChEMBL document CHEMBL1201862, “PubChem BioAssay data set” (2004).
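Briefly, cells in 96-well plates were exposed to five compound concentrations for 48 h, and endpoints were estimated by linear interpolation. Here, GI50 denotes the concentration required for 50% inhibition of growth.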 Activity calls are given as the source filed them. No stated cut-off is given here; in the data, active = GI50 up to about 1.1 µM and inactive = higher.

Key:
Experiment in all cases: NCI anticancer screen, dose series, 48 h
[1] = tested on: 786-0
[2] = tested on: ACHN
[3] = tested on: CAKI-1
[4] = tested on: COLO 205
[5] = tested on: DU-145
[6] = tested on: HOP-92
[7] = tested on: Hs-578T
[8] = tested on: IGROV-1
[9] = tested on: K562
[10] = tested on: MCF7
[11] = tested on: MDA-MB-231
[12] = tested on: MDA-MB-435
[13] = tested on: MOLT-4
[14] = tested on: Malme-3M
[15] = tested on: NCI-H460
[16] = tested on: OVCAR-8
[17] = tested on: SF-268
[18] = tested on: SK-MEL-2
[19] = tested on: T47D
[20] = tested on: TK-10

Row | Structure (SMILES) | GI50 [1] | GI50 [2] | GI50 [3] | GI50 [4] | GI50 [5] | GI50 [6] | GI50 [7] | GI50 [8] | GI50 [9] | GI50 [10] | GI50 [11] | GI50 [12] | GI50 [13] | GI50 [14] | GI50 [15] | GI50 [16] | GI50 [17] | GI50 [18] | GI50 [19] | GI50 [20]
1 | Cn1c(N)c(/C=C/C(=O)Oc2ccccc2)c(=O)n(C)c1=O | 78.9 µM (inactive) | 50.7 µM (inactive) | 29 µM (inactive) | > 100 µM (inactive) | 99.8 µM (inactive) | 22.3 µM (inactive) | 36 µM (inactive) | 67.9 µM (inactive) | > 100 µM (inactive) | 47.9 µM (inactive) | > 100 µM (inactive) | > 100 µM (inactive) | > 100 µM (inactive) | > 100 µM (inactive) | > 100 µM (inactive) | 30.6 µM (inactive) | 31.7 µM (inactive) | > 100 µM (inactive) | 85.3 µM (inactive) | > 100 µM (inactive)
2 | c1ccc2c3c(c(N4CCOCC4)nc2c1)CCCC3 | 32.8 µM (inactive) | 41.2 µM (inactive) | 64.7 µM (inactive) | 20 µM (inactive) | 33.3 µM (inactive) | 67.1 µM (inactive) | 76.6 µM (inactive) | > 100 µM (inactive) | 49.8 µM (inactive) | 29.5 µM (inactive) | 32.1 µM (inactive) | 48.6 µM (inactive) | 30 µM (inactive) | 75.2 µM (inactive) | 34.7 µM (inactive) | 57.5 µM (inactive) | 66.5 µM (inactive) | 42.8 µM (inactive) | 16 µM (inactive) | 63.4 µM (inactive)
3 | CCOC(=O)C(NC(=O)CC)(Nc1ccc(S(=O)(=O)Nc2onc(C)c2C)cc1)C(F)(F)F (centres undefined) | > 100 µM (inactive) | > 100 µM (inactive) | > 100 µM (inactive) | > 100 µM (inactive) | > 100 µM (inactive) | > 100 µM (inactive) | > 100 µM (inactive) | > 100 µM (inactive) | > 100 µM (inactive) | > 100 µM (inactive) | > 100 µM (inactive) | > 100 µM (inactive) | > 100 µM (inactive) | > 100 µM (inactive) | > 100 µM (inactive) | > 100 µM (inactive) | > 100 µM (inactive) | > 100 µM (inactive) | > 100 µM (inactive) | –
4 | COc1ccc(C(C)NNC(=O)c2cc[n+]([BH2-]C#N)cc2)c(OC)c1 (centres undefined) | > 100 µM (inactive) | > 100 µM (inactive) | > 100 µM (inactive) | > 100 µM (inactive) | > 100 µM (inactive) | > 100 µM (inactive) | > 100 µM (inactive) | > 100 µM (inactive) | > 100 µM (inactive) | > 100 µM (inactive) | > 100 µM (inactive) | > 100 µM (inactive) | > 100 µM (inactive) | > 100 µM (inactive) | > 100 µM (inactive) | > 100 µM (inactive) | > 100 µM (inactive) | > 100 µM (inactive) | > 100 µM (inactive) | > 100 µM (inactive)
5 | CCOC(=O)c1ccc2nc(-c3ccc(S(=O)(=O)F)cc3)cc(O)c2c1 | 36.4 µM (inactive) | 24.2 µM (inactive) | 39.9 µM (inactive) | 58.9 µM (inactive) | 48.9 µM (inactive) | > 100 µM (inactive) | 54.8 µM (inactive) | 48.8 µM (inactive) | 42.8 µM (inactive) | 30.1 µM (inactive) | 36.3 µM (inactive) | 40.9 µM (inactive) | 36.8 µM (inactive) | 25.1 µM (inactive) | 34.4 µM (inactive) | 61.2 µM (inactive) | 60.8 µM (inactive) | 27.5 µM (inactive) | 25.1 µM (inactive) | 27.7 µM (inactive)
6 | CC(C)CCC/C(CBr)=C(\Cl)CCl | 1.85 µM (inactive) | 11.2 µM (inactive) | 5.06 µM (inactive) | 1.83 µM (inactive) | 5.52 µM (inactive) | 2.14 µM (inactive) | 2.45 µM (inactive) | 1.6 µM (inactive) | 0.104 µM (active) | 4.08 µM (inactive) | 2.81 µM (inactive) | 2.36 µM (inactive) | 0.653 µM (active) | 2.59 µM (inactive) | 5.05 µM (inactive) | 1.56 µM (inactive) | 3.55 µM (inactive) | 1.46 µM (inactive) | 1.17 µM (inactive) | 1.88 µM (inactive)
7 | Cc1cc2nc3ccc(N(C)C)cc3[s+]c2cc1N [TOLONIUM CHLORIDE] | 5.22 µM (inactive) | 8.71 µM (inactive) | 23.5 µM (inactive) | 2.97 µM (inactive) | 15.7 µM (inactive) | 13.4 µM (inactive) | 5.12 µM (inactive) | 6.22 µM (inactive) | 2.22 µM (inactive) | 2.3 µM (inactive) | 2.41 µM (inactive) | 0.977 µM (active) | 2.69 µM (inactive) | 1.93 µM (inactive) | 2.82 µM (inactive) | 2.16 µM (inactive) | 5.38 µM (inactive) | 3.5 µM (inactive) | 5.2 µM (inactive) | 19.2 µM (inactive)
